From PMC9202019 (ACS Omega, 2022)
“And” between values parts separate entries of the source, which are not always exact repeats. Equal entries are not always repeated. Where two headings read alike, the source gives them in different places. One block for each molecule: values may come before it.

Tests used:
CYP1A2 [1] = molecular target: T1, CYP1A2 (Homo sapiens, UniProt P05177); settings: HLM; cited from earlier work
T1 sequence (P05177 1-516): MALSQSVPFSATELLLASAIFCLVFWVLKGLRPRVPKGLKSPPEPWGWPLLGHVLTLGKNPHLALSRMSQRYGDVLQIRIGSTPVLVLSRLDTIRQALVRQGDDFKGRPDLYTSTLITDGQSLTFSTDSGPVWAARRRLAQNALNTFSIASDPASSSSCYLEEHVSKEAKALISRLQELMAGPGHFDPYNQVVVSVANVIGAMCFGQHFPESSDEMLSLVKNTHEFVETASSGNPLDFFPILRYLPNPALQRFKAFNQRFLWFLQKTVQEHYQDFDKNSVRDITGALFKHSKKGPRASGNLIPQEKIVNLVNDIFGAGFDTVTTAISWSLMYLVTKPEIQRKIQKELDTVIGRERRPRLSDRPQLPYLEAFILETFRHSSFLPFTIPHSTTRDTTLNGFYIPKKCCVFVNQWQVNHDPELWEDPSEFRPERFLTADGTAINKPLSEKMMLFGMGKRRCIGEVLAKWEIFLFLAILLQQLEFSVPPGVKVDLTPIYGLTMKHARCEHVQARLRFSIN

CYP1A2 [2] = molecular target: T1, CYP1A2; settings: read-out: IC50 for CYP1A2-mediated phenacetin O-deethylation in HLM; cited from earlier work
[3] = humans; cited from earlier work
[4] = Pharmacokinetics of caffeine alone and with pinocembrin in rats; format: in vivo; settings: male, Wistar, rat, plasma, po, 15 mg/kg
CYP1A2 [5] = settings: cited from earlier work
CYP1A2 [6] = molecular target: T2, CYP1A2 (Rattus norvegicus, UniProt P04799); settings: read-out: IC50 for CYP1A2 in RLM; cited from earlier work
T2 sequence (P04799 1-513): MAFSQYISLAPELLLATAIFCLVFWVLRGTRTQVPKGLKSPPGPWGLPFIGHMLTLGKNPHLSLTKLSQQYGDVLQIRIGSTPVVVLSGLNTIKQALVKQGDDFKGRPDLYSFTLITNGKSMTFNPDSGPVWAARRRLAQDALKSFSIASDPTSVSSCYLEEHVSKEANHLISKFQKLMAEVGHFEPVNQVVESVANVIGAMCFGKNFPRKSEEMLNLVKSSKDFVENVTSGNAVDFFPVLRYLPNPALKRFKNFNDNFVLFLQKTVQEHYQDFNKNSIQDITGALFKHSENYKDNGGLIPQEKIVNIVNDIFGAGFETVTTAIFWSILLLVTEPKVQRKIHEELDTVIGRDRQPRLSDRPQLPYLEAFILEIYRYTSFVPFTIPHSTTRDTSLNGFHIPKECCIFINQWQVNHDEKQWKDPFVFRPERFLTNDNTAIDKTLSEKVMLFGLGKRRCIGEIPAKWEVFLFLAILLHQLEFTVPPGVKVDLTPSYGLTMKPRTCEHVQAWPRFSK

[7] = format: in vivo, Wistar rats; settings: male, Wistar, rat, plasma, po, 4 mg/kg; for AUC(0-t): AUC0–t, tacrine 4 mg/kg oral alone (group III); for half-life: T1/2, tacrine 4 mg/kg oral alone (group III)
CYP1A2 [8] = molecular target: T1, CYP1A2; settings: cited from earlier work
CYP1A2 [9] = molecular target: T1, CYP1A2; settings: HLM 0.3 mg/mL, phenacetin 1–1500 μM, 30 min
[10] = Stability of pinocembrin in HLM; format: in vitro ADME, human; settings: pinocembrin 5 μM, HLM 0.3 mg/mL, 0-30 min, 37 °C
[11] = Stability of pinocembrin in RLM; format: in vitro ADME, rat; settings: protocol as for HLM
CYP1A2 [12] = molecular target: T2, CYP1A2; assay: CYP1A2-catalyzed phenacetin O-deethylation in RLM; format: in vitro ADME
[13] = Liver distribution of pinocembrin after intravenous dosing in rats; format: in vivo; settings: male, Wistar, rat, 10 mg/kg
CYP2C9 = settings: read-out: IC50 for CYP2C9 inhibition; cited from earlier work
CYP2C19 = settings: read-out: IC50 for CYP2C19 inhibition; cited from earlier work
CYP3A4 = settings: read-out: IC50 for CYP3A4 inhibition; cited from earlier work
[14] = humans; cited from earlier work; remark: listed apart in the source

SMILES: O=c1cc(-c2ccc(O)c(O)c2)oc2cc(O)cc(O)c12 [Luteolin]
type of CYP1A2 inhibition (CYP1A2 [1]): competitively

SMILES: CS(=O)(=O)c1ccc(C2=C(c3ccccc3)C(=O)OC2)cc1 [Rofecoxib]
IC50 (CYP1A2 [2]): 4.2 µM
increase in plasma concentration of the CYP1A2 substrate tizanidine [3]: 13.6 fold

SMILES: Cc1nc2c([nH]1)c(=O)n(C)c(=O)n2Cc1ccco1 [furafylline]
IC50 (CYP1A2 [6]): 20.8 µM

SMILES: CC(C)C1=Cc2ccc3c(c2C(=O)C1=O)CCCC3(C)C [miltirone]
type of CYP1A2 inhibition (CYP1A2 [8]; kinetic analysis): mixed-type
IC50 (CYP1A2 [8]; read-out: IC50 for CYP1A2 in HLM, HLM): 1.73 µM

SMILES: c1ccc2[nH]c(-c3cscn3)nc2c1 [thiabendazole]
enhancement in the plasma level of caffeine [14]: 1.6 fold

More lines, main results first:

AUC(0-t) ([4]; AUC0–t, caffeine 15 mg/kg oral alone (group I)): 2840 ± 141 ng·h/mL
half-life ([4]; T1/2, caffeine 15 mg/kg oral alone (group I)): 1.1 ± 0.1 h
SMILES: Cn1c(=O)c2c(ncn2C)n(C)c1=O [caffeine]
portion of the drug metabolized by CYP1A2 (CYP1A2 [5]): > 95%

AUC(0-t) [7]: 907 ± 129 ng·h/mL
half-life [7]: 1.5 ± 0.3 h
SMILES: Nc1c2c(nc3ccccc13)CCCC2O (stereo not drawn) [hydroxytacrine, 1-hydroxytacrine]

maximum velocity of the uninhibited reaction (Vmax) for CYP1A2-catalyzed phenacetin O-deethylation (CYP1A2 [9]): 1584 ± 12 pmol/min/mg of protein
SMILES: CCOc1ccc(NC(C)=O)cc1 [phenacetin]

Stability of pinocembrin in HLM (amount remaining vs 0 min) [10]: stable
Stability of pinocembrin in RLM (amount remaining vs 0 min) [11]: stable
IC50 (CYP1A2 [12]): 3.11 ± 0.09 µM
Kp ([13]; liver and plasma): 1.8 to 3.8
concentration at 5 min ([13]; liver): 3680 ng/g
concentration at 15 min ([13]; liver): 2380 ng/g
concentration at 5 min ([13]; plasma): 2030 ng/mL and 7.9 µM
concentration at 15 min ([13]; plasma): 621 ng/mL
SMILES: O=C1C[C@@H](c2ccccc2)Oc2cc(O)cc(O)c21 [pinocembrin]
IC50 (CYP2C9): 13 µM
IC50 (CYP2C19): 22 µM
IC50 (CYP3A4): 28 µM

AUC(0-t) [7]: 142 ± 13 ng·h/mL
half-life [7]: 1.7 ± 0.2 h
SMILES: Nc1c2c(nc3ccccc13)CCCC2 [tacrine]
contribution of CYP1A2 to metabolism (CYP1A2 [5]): > 90%
